Reference: article PMC5392334, “Discovery and characterization of a novel irreversible EGFR mutants selective and potent kinase inhibitor CHMFL-EGFR-26 with a distinct binding mode” (Oncotarget, 2017)

Columns and labels:
[1] = system: H3255 (EGFRL858R); experiment: Anti-proliferation, NSCLC cell lines (CellTiter-Glo); assay type: cell-based; details: Homo sapiens, NCI-H3255, 72 hours, triplet testing
Experimental: (§1) The human cancer cell lines H1975, HCC827, H2122, CHO, CHL and H1355 were purchased from the American Type Culture Collection (ATCC) (Manassas, VA, USA). PC9 cell line was purchased from the Sigma-Aldrich (St. Louis, MO, USA). A549, H3255 were purchased from Cobioer Biosciences CO., LTD (Nanjing, China). […] A549 and H1355 were cultured in F-12K Nutrient Mixture (kaighn's Modification) (Gibco, USA) with 10% FBS and supplemented with 2% L-glutamine and 1% pen/strep. H3255 was cultured in BEGM media (LONZA, USA) with 10% FBS and supplemented with 2% L-glutamine and 1% pen/strep.

[2] = system: A549 (EGFR wt); experiment: as above; assay type: cell-based; details: Homo sapiens, 72 hours, triplet testing
Experimental: as §1

[3] = system: HCC827 (EGFR del19); experiment: as above; assay type: cell-based; details: Homo sapiens, 72 hours, triplet testing
Experimental: as §1

[4] = system: H2122 (EGFR wt); experiment: as above; assay type: cell-based; details: Homo sapiens, NCI-H2122, 72 hours, triplet testing
Experimental: as §1

[5] = system: H1703 (EGFR wt); experiment: as above; assay type: cell-based; details: Homo sapiens, NCI-H1703, 72 hours, triplet testing
Experimental: as §1

[6] = system: H1355(EGFR wt); experiment: as above; assay type: cell-based; details: Homo sapiens, NCI-H1355, 72 hours, triplet testing
Experimental: as §1

[7] = system: PC-9 (EGFR del19); experiment: as above; assay type: cell-based; details: Homo sapiens, 72 hours, triplet testing
Experimental: as §1

[8] = system: EGFR Y1068 phosphorylation in BaF3-TEL-EGFR cells; experiment: EGFR Y1068 auto-phosphorylation in transformed BaF3 cells; details: Mus musculus, BaF3, 4 h, read-out: EC50, phosphorylation of EGFR Y1068
[9] = system: BaF3-IGF1R; experiment: Anti-proliferative effects, IGF1R transformed isogenic BaF3 cells; assay type: cell-based; details: Mus musculus, read-out: IC50 (anti-proliferative; GI50)
[10] = system: Parental BaF3; experiment: Anti-proliferation, BaF3 isogenic cell lines (CellTiter-Glo); assay type: cell-based; details: Mus musculus; Parental BaF3; 72 hours; triplet testing
[11] = system: BaF3-FL-EGFR-del19-T790M-C797S; experiment: as above; assay type: cell-based; details: Mus musculus, 72 hours, triplet testing
[12] = target: MNK2 kinase; details: cited from earlier work
[13] = system: CHL; experiment: Anti-proliferation, normal cells (CellTiter-Glo); details: Cricetulus griseus, 72 h
Experimental: (§2) Cells were grown in 96-well culture plates (2500-3000/well). For adherent cell lines, compounds of various concentrations were added into the plates after cells were cultured for 12 hours. Cell proliferation was determined after treatment with compounds for 72 hours. Cell viability was measured using the CellTiter–Glo assay (Promega, USA) according to the manufacturer's instructions, and luminescence was measured in a multi-label reader (Envision, PerkinElmer, USA). Data were normalized to control groups (DMSO) and represented by the mean of three independent measurements with standard error <20%. GI50 values were calculated using Prism 5.0 (GraphPad Software, San Diego, CA).

[14] = system: BaF3-INSR; experiment: Anti-proliferative effects, INSR transformed isogenic BaF3 cells; assay type: cell-based; details: Mus musculus, read-out: IC50 (anti-proliferative; GI50)
[15] = system: BaF3-FL-EGFR-del19-T790M; experiment: Anti-proliferation, BaF3 isogenic cell lines (CellTiter-Glo); assay type: cell-based; details: Mus musculus, 72 hours, triplet testing
[16] = system: H1975 (EGFRL858R/T790M); experiment: Anti-proliferation, NSCLC cell lines (CellTiter-Glo); assay type: cell-based, human; details: Homo sapiens, NCI-H1975; H1975 (EGFRL858R/T790M); 72 hours; triplet testing
Experimental: as §1

[17] = system: BaF3-TEL-EGFR-L858R; experiment: Anti-proliferation, BaF3 isogenic cell lines (CellTiter-Glo); assay type: cell-based; details: Mus musculus, 72 hours, triplet testing
[18] = system: BaF3-FL-EGFR-del19; experiment: as above; assay type: cell-based; details: Mus musculus, 72 hours, triplet testing
[19] = system: CHO; experiment: Anti-proliferation, normal cells (CellTiter-Glo); details: Cricetulus griseus, 72 h
Experimental: as §2

[20] = system: BaF3-TEL-EGFR-T790M-C797S; experiment: Anti-proliferation, BaF3 isogenic cell lines (CellTiter-Glo); assay type: cell-based; details: Mus musculus, 72 hours, triplet testing
[21] = quoted in discussion for comparison; species, route and reference not given; cited from earlier work
[22] = system: BaF3-FL-EGFR-L858R-T790M-C797S; experiment: Anti-proliferation, BaF3 isogenic cell lines (CellTiter-Glo); assay type: cell-based; details: Mus musculus, 72 hours, triplet testing
[23] = system: BaF3-TEL-EGFR-T790M; experiment: as above; assay type: cell-based; details: Mus musculus, 72 hours, triplet testing
[24] = system: BaF3-FL-EGFR-L858R-T790M; experiment: as above; assay type: cell-based; details: Mus musculus, 72 hours, triplet testing
[25] = system: BaF3-TEL-EGFR; experiment: as above; assay type: cell-based; details: Mus musculus, 72 hours, triplet testing
[26] = system: BaF3-TEL-EGFR-C797S; experiment: as above; assay type: cell-based; details: Mus musculus, 72 hours, triplet testing
[27] = system: BaF3-TEL-EGFR-L858R-C797S; experiment: as above; assay type: cell-based; details: Mus musculus, 72 hours, triplet testing

| Structure (SMILES) | GI50 [1] | GI50 [2] | GI50 [3] | GI50 [4] | GI50 [5] | GI50 [6] | GI50 [7] | GI50 [10] | GI50 [11] | GI50 [13] | GI50 [15] | GI50 [16] | GI50 [17] | GI50 [18] | GI50 [19] | GI50 [20] | GI50 [22] | GI50 [23] | GI50 [24] | GI50 [25] | further results |
| --- | --- | --- | --- | --- | --- | --- | --- | --- | --- | --- | --- | --- | --- | --- | --- | --- | --- | --- | --- | --- | --- |
| C=CC(=O)Nc1cc(Nc2nccc(-c3cn(C)c4ccccc34)n2)c(OC)cc1N(C)CCN(C)C [AZD9291, reference compound] | 0.033 µM | 3.5 µM | 0.001 µM | 1.2 µM | 3.5 µM | 3 µM | 0.002 µM | 1.5 µM | 0.2 µM | 2.9 µM | < 0.0003 µM | 0.052 µM | < 0.0003 µM | 0.001 µM | 4.2 µM | 0.55 µM | 0.31 µM | 0.013 µM | < 0.0003 µM | 0.3 µM | EC50 [8]: 0.063 µM; IC50 [9]: 0.56 µM; IC50 [12]: 0.095 µM; IC50 [14]: 0.5 µM; T1/2 [21]: 3.1 h; GI50 [26]: 0.59 µM; GI50 [27]: 0.59 µM |
| CCC(=O)N1CCC[C@@H](n2nc(-c3ccc(OCc4cccc(C)n4)c(Cl)c3)c3c(N)ncnc32)C1 [CHMFL-EGFR-26R] | > 10 µM | > 10 µM | > 10 µM | > 10 µM | 9.4 µM | > 10 µM | > 10 µM | > 10 µM | 7.3 µM | > 10 µM | 7.1 µM | > 10 µM | > 10 µM | > 10 µM | > 10 µM | > 10 µM | > 10 µM | > 10 µM | > 10 µM | > 10 µM | GI50 [26]: 6.6 µM; GI50 [27]: > 10 µM |
